In experiment [1] the test system is polymodal nociceptors. Put plainly: animal or person. The experiment is classed as in vivo, Sprague-Dawley rats.
Experiment [2] relates to polymodal nociceptor neurons. The following applies: for RTX-like effects: in vivo.
The target in experiment [3] is protein kinase C. The settings on record: read-out: KI, binding affinity to protein kinase C; cited from earlier work.
For experiment [4], the system named is polymodal nociceptors. Details: species or system Sprague-Dawley rats. The following applies: rat, in vivo.
Experiment [5] concerns polymodal nociceptors. The experiment is classed as in vivo, Sprague-Dawley rats. The settings on record: for Neurogenic inflammation, Evan's blue: 30 min; for Evan's blue extravasation / less potent than RTX for induction of Evan's blue extravasation: rat, in vivo.
The test system of experiment [6] is protein kinase C. The experiment is classed as binding. The settings on record: for Ki: read-out: KI, binding affinity to protein kinase C.
Experiment [7] deals with polymodal nociceptors. The experiment can be described thus: animal or person. The experiment is classed as in vivo, Sprague-Dawley rats. This is another data set of the same source.
The test system of the next experiment is mouse ear. The following applies: in vivo; cited from earlier work.
Experiment [8] deals with polymodal nociceptor neurons. The following applies: in vivo; cited from earlier work.
The conditions of experiment [9]: mouse, in vivo; cited from earlier work.
In experiment [10] the test system is polymodal nociceptors. Details: species or system Sprague-Dawley rats. The settings on record: rat, in vivo. The source holds these as a separate data set.
For experiment [11] the following is noted: rat, in vivo; cited from earlier work.
The subject of experiment [12] is polymodal nociceptors. The following applies: rat, in vivo; cited from earlier work.
Details of experiment [13]: species or system rats. The settings on record: rat, in vivo.
[14] abbreviates: Rattus norvegicus, sc, 6 hr, read-out: Systemic desensitization against neurogenic inflammation, inhibition.
Setting [15] is: Rattus norvegicus, sc, 6 h, read-out: Systemic desensitization against neurogenic pain, inhibition.

Entries after “also recorded” stand apart in the source; their conditions may differ. Read-outs that look alike come from different tables or passages of the source. A value given as a limit tells only on which side of the number the result lay.

We go through seven molecules from patent publication US5021450A (priority 1989, dated 1991).

For the molecule `C=C(C)[C@@]12O[C@@]3(c4ccccc4)O[C@@H]1[C@@H]1[C@@H]4O[C@]4(CO)[C@@H](O)[C@]4(O)C(=O)C(C)=C[C@H]4[C@@]1(O3)[C@H](C)[C@H]2OC(=O)/C=C/C=C/c1ccccc1` [Mez, Mezerein], the inhibition at 0.3 mg/kg in the experiment with polymodal nociceptors [1] (setting [14]) was found to be 0%. Moreover, the “RTX-like effects” value in experiment [2] was “inactive”. In addition, the Ki at protein kinase C [3] was 0.58 ± 0.06 nM. In addition, in the experiment with polymodal nociceptors [4], the “RPP (Relative Pain-Producing Potency)” value was 0.1. In the experiment on polymodal nociceptors [5], the “Neurogenic inflammation, Evan's blue” value was 0 and the “Evan's blue extravasation” value is recorded as “slight extravasation”.

On to `C=C(C)[C@@]12O[C@@]3(c4ccccc4)O[C@@H]1[C@@H]1[C@@H]4O[C@]4(COC(=O)Cc4ccc(O)c(OC)c4)[C@@H](O)[C@]4(O)C(=O)C(C)=C[C@H]4[C@@]1(O3)[C@H](C)[C@H]2OC(=O)/C=C/C=C/c1ccccc1` [Mez-HV, Mezerein 20-homovanillate], for which the inhibition at 0.3 mg/kg in the experiment on polymodal nociceptors [1] (setting [14]) was found to be 0%. Also, in experiment [2], the “RTX-like effects” value was “inactive”. Besides, in the experiment on protein kinase C [6], the “Relative Affinity” value is recorded as 690, the “reduction of protein kinase C binding affinity by the 20-homovanillate ester” value (shortened to “reduction”) is on record as 690 fold and the Ki is 400 ± 110 nM. Moreover, in the experiment with polymodal nociceptors [7] (setting [15]), the inhibition at 0.3 mg/kg was found to be 0%. The “desensitization to chemically-induced pain and to neurogenic inflammation” value with polymodal nociceptors [7] (rat, in vivo) is “No activity; also recorded: inactive”. For the same molecule, in the experiment with polymodal nociceptors [4], the “RPP (Relative Pain-Producing Potency)” value stood at 0.1; the “activity in eye-wiping assay / pain induction” value is “very weak pungency; also recorded: very weak activity”; the “potency in eye-wiping assay, less potent than RTX and dPP-HV” value is listed as “approximately 4 orders of magnitude”. In the experiment with polymodal nociceptors [5], the “Neurogenic inflammation, Evan's blue” value is given as 0; the “Evan's blue extravasation” value is on record as “No extravasation”; the “less potent than RTX for induction of Evan's blue extravasation” value is “at least 30 fold”.

On to `C=C(C)[C@]12C[C@@H](C)[C@@]34O[C@](Cc5ccccc5)(O[C@@H]1[C@@H]3C=C(CO)C[C@]1(O)C(=O)C(C)=C[C@@H]41)O2` [ROA, Resiniferonol 9,13,14Orthophenylacetate], for which the inhibition at 0.3 mg/kg in the experiment on polymodal nociceptors [1] (setting [14]) came out at 0%. Further, the “RTX-like effects” value in experiment [2] was “totally inactive”. Further, in the experiment with mouse ear, the “potency in ear reddening assay, less than dPP” value is given as 25 fold and the “potency in ear reddening assay, less than mezerein” value is 33 fold. In addition, in the experiment on protein kinase C [6], the “less active than dPP or mezerein in competing for phorbol ester binding sites on protein kinase C” value came to 100 fold and the Ki was 36 ± 9 nM. In addition, the inhibition at 0.3 mg/kg in the experiment on polymodal nociceptors [7] (setting [15]) amounted to 0%. Moreover, in the experiment on polymodal nociceptors [4], the “RPP (Relative Pain-Producing Potency)” value is listed as 1 and the “less potent than RTX for RTX-characteristic biological responses” value is “at least 1000 fold”. In addition, the “Neurogenic inflammation, Evan's blue” value in the experiment on polymodal nociceptors [5] amounted to 0.

Regarding `C=C(C)[C@]12C[C@@H](C)[C@@]34O[C@](Cc5ccccc5)(O[C@@H]1[C@@H]3C=C(COC(=O)Cc1ccc(O)c(OC)c1)C[C@]1(O)C(=O)C(C)=C[C@@H]41)O2` [RTX, Resiniferatoxin], in the experiment with polymodal nociceptors [1] (setting [14]), the inhibition at 0.3 mg/kg was 100%. For the same molecule, the “more potent compared to capsaicin” value in [8] is 3-4 orders of magnitude. Further, the “body temperature in mice” value in [9] is recorded as “dramatic fall in body temperature”. In the experiment with mouse ear, the “more potent than phorbol 12-myristate 13-acetate in mouse ear erythema assay” value is reported as 1000 fold. Besides, the “Local desensitization against neurogenic pain, inhibition” value in the experiment on polymodal nociceptors [10] came to 43%. For the same molecule, in the experiment with protein kinase C [6], the “Relative Affinity” value is 11, the “reduction” value was 11 fold and the Ki worked out at 404 ± 63 nM. The “dose producing a substantial drop in body temperature” value in experiment [11] is recorded as 10^-7 g/kg. The inhibition at 0.01 mg/kg with polymodal nociceptors [7] (setting [15]) is 100%. The “dose giving a detectable Evan's blue extravasation response” value in the experiment with polymodal nociceptors [12] was 3×10^-6 g/paw. For the same molecule, in the experiment on polymodal nociceptors [4], the “RPP (Relative Pain-Producing Potency)” value was found to be 1000, the “activity in eye-wiping assay / pain induction” value was “comparable activity” and the “delay of eye-wiping movements after instillation” value fell in the range of 5 to 10 s. Moreover, the “Neurogenic inflammation, Evan's blue” value with polymodal nociceptors [5] is given as 91.6 ± 3.6.

`COc1cc(CNC(=O)CCCC/C=C/C(C)C)ccc1O` [capsaicin]: in experiment [9], the “body temperature in mice” value is reported as “dramatic fall in body temperature”.

In the case of `CC1=C[C@H]2[C@@]3(O)[C@H](C)C[C@]4(OC(=O)Cc5ccccc5)[C@H]([C@@H]3C=C(CO)C[C@]2(O)C1=O)C4(C)C` [dPP, 12-deoxyphorbol 13-phenylacetate], the inhibition at 0.3 mg/kg with polymodal nociceptors [1] (setting [14]) came to 0%. For the same molecule, in experiment [2], the “RTX-like effects” value is “inactive”. Also, at protein kinase C [6], the Ki was 0.64 ± 0.01 nM. Also, in the experiment with polymodal nociceptors [4], the “RPP (Relative Pain-Producing Potency)” value is 1. Further, in the experiment on polymodal nociceptors [5], the “Neurogenic inflammation, Evan's blue” value turned out to be 0 and the “Evan's blue extravasation” value was “slight extravasation”.

As for `COc1cc(CC(=O)OCC2=C[C@H]3[C@@H]4C(C)(C)[C@]4(OC(=O)Cc4ccccc4)C[C@@H](C)[C@]3(O)[C@@H]3C=C(C)C(=O)[C@@]3(O)C2)ccc1O` [dPP-HV, 20-Homovanillic-12-deoxyphorbol 13-phenylacetate], in the experiment with polymodal nociceptors [1] (setting [14]), the inhibition at 0.3 mg/kg was 26% and the inhibition at 1 mg/kg amounted to 62%. In the experiment on polymodal nociceptors [1] (rat, in vivo), the “relative potency for inhibiting xylene-induced Evan's blue extravasation, less than RTX” value came out at 300 fold. In addition, in experiment [2], the “less potent than RTX in the other RTX responses / in vivo assays” value is recorded as 2-4 orders of magnitude; the “RTX-like effects” value is “more active than capsaicin and less active than RTX”. Besides, in [13], the “induction of hypothermia” value is “totally inactive” and the “less potent than RTX for induction of hypothermia” value was “at least 4 orders of magnitude”. In the experiment on polymodal nociceptors [10], the “Local desensitization against neurogenic pain, inhibition” value was 78% and the “potency relative to RTX for desensitization of pain upon local administration” value is given as at most 10 fold. For the same molecule, in the experiment with protein kinase C [6], the “Relative Affinity” value amounted to 130, the “reduction” value is reported as 130 fold and the Ki came out at 82 ± 13 nM. Also, the inhibition at 0.3 mg/kg with polymodal nociceptors [7] (setting [15]) was 19%. In the experiment with polymodal nociceptors [7] (rat, in vivo), the “desensitization to chemically-induced pain and to neurogenic inflammation” value is on record as “able to desensitize”; the “relative potency for systemic desensitization to chemically induced pain, less than RTX” value is reported as “approximately 3000 fold”. Further, in the experiment with polymodal nociceptors [4], the “RPP (Relative Pain-Producing Potency)” value came to 1000, the “activity in eye-wiping assay / pain induction” value is “comparable to RTX; also recorded: comparable activity” and the “delay of eye-wiping movements after instillation” value was 20 to 30 s. Besides, in the experiment with polymodal nociceptors [5], the “Neurogenic inflammation, Evan's blue” value was 0; the “Evan's blue extravasation” value is “No extravasation”; the “less potent than RTX for induction of Evan's blue extravasation” value is “at least 30 fold”.
